Data from patent US20230391796A1, “GLYCOSIDASE INHIBITORS AND USES THEREOF” (UNIVERSIDAD DE SEVILLA (US) -UNIVERSITY OF SEVILLE (US), priority 2020, published 2023).
Structures can show the parent of a compound that is named as a salt.

Experiments:
Type in all cases: biochemical
[1] = target: T1, hOGA (Homo sapiens, UniProt O60502); test: Inhibition assay against hOGA, resorufin N-acetyl-β-D-glucosaminide fluorescence; conditions: 0.2 nM hOGA, 25 μM substrate, pH 7.1; Morrison Ki
T1 sequence (O60502 1-916): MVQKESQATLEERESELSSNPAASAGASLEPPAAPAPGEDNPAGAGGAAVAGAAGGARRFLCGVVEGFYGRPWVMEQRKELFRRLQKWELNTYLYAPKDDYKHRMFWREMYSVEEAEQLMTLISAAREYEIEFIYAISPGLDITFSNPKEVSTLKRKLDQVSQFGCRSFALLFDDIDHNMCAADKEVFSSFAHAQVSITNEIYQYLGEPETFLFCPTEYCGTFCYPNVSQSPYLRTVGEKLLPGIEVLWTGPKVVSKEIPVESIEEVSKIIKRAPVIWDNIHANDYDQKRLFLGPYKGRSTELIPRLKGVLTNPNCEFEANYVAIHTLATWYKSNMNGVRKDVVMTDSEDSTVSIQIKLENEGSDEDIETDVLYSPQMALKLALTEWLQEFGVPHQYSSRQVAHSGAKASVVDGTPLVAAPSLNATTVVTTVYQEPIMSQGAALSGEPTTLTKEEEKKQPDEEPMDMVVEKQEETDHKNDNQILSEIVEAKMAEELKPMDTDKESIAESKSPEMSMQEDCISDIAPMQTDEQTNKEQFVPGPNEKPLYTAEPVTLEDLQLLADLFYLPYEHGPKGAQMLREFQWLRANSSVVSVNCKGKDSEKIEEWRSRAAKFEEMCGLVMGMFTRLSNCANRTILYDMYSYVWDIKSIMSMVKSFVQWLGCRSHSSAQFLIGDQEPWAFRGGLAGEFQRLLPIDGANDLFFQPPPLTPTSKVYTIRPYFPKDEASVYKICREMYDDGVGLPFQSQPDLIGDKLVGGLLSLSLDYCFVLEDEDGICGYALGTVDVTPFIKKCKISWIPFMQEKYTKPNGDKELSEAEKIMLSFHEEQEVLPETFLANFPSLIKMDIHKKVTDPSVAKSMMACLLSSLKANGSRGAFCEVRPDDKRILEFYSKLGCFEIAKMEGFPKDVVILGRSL
Protocol: Inhibition Assays Against hOGA
Km=25 μM was measured with these conditions. Inhibition assays were run at 0.2 nM [hOGA] in the same buffer, in the presence or absence of various concentrations of inhibitors and at a fixed substrate concentration of 25 μM and 1% DMSO. First, inhibitor was serially diluted to the desired range of concentrations in 2% DMSO buffer. Next, 50 μL of inhibitor solutions at various concentrations in 2% DMSO Buffer was added to 50 μL of 0.8 nM enzyme and allowed to incubate at 25° C. for 5 minutes. 100 uL of 50 μM and 1% DMSO substrate was then added and reaction mixture was immediately mixed and aliquoted in 45 μL triplicates to a CORNING 384 well black plate. Fluorescence signal was measured continuously for 20 minutes at 37° C. in a BioTek Neo 2 Plate reader set at excitation and emission wavelengths of 572 and 610 nm, respectively. Max reaction rates for all inhibitor concentrations were calculated within Gen5 BioTek reader software. % Activity was subsequently calculated for each inhibitor concentration against the max reaction rate of uninhibited hOGA. GraphPad Prism 2016 was used to approximate the Morrison Ki values for each inhibitor.

[2] = target: β-N-acetylglucosaminidase (from bovine kidney); test: Inhibition assay against commercial β-N-acetylglucosaminidase (bovine kidney), p-nitrophenyl N-acetyl-β-D-glucosaminide substrate; conditions: pH 5.5, 37° C.; average of three determinations ± s.e.m.; NI = no inhibition detected at 200 μM; read-out: Bovine kidney Hex
Protocol: (§1) Inhibition Assays Against Commercial β-N-acetylglucosaminidases
(§2) Inhibition constant (Ki) values were determined by spectrophotometrically measuring the residual hydrolytic activities of the glycosidases against p-nitrophenyl N-acetyl-β-D-glucosaminide. […] Each assay was performed in phosphate-citrate buffer and the reactions were initiated by addition of the enzyme to a solution of the substrate in the absence or presence of various inhibitor concentrations. The mixture was incubated for 10-30 min at 37° C. and the reaction was quenched by addition of 1 M Na2CO3. Reaction times were appropriate to obtain 10-20% conversion of the substrate in order to achieve linear rates. The absorbance of the resulting mixture was determined at 405 nm. Approximate values of Ki were determined using a fixed concentration of substrate (around the Km value for the different glycosidases) and various inhibitor concentrations. Full Ki determinations and enzyme inhibition mode were determined from the slope of Lineweaver-Burk plots and double reciprocal analysis using a Microsoft Office Excel 2007 program.

[3] = target: β-N-acetylglucosaminidase (from jack bean); test: Inhibition assay against commercial β-N-acetylglucosaminidase (jack bean), p-nitrophenyl N-acetyl-β-D-glucosaminide substrate; conditions: pH 5.5, 37° C.; average of three determinations ± s.e.m.; NI = no inhibition detected at 200 μM; read-out: Jack beans Hex
Protocol: as §1, §2

[4] = target: T2, Recombinant Human Hexosaminidase A (HexA) (Homo sapiens, UniProt P06865); test: Inhibition assay against rhHexA, 4-methylumbelliferone-N-acetyl-β-D-glucosaminide fluorescence; conditions: IC50 for lysosomal hHexA; NI = no inhibition detected at 200 μM
T2 construct: purchased R&D Systems 6237-GH-020
T2 sequence (P06865 89-529): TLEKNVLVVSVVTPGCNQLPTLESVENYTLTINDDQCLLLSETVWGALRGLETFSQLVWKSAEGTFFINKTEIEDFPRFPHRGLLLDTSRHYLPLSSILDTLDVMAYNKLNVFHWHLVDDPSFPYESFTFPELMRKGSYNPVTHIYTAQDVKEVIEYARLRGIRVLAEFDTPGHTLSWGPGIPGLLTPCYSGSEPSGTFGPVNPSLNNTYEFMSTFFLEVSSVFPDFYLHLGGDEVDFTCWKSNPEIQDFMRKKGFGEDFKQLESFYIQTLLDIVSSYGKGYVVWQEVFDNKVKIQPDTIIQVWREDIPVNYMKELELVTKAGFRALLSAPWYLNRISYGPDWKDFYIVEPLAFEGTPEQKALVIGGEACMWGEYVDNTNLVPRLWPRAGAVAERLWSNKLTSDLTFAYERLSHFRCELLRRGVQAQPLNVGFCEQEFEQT
Protocol: Inhibition Assays Against rhHexA
Human Hexosaminidase A (HexA) enzyme, purchased from R&D Systems (cat# 6237-GH-020), were determined by measuring the fluorescent signal corresponding to the rate of hydrolytic activity against the commercially available artificial substrate, 4-Methylumbelliferone-N-acetyl-β-D-glucosaminide. HexA activity assays were performed in a buffer of 100 mM sodium citrate, 250 NaCl, pH 4.5 and 1.0 nM [HexA], then stopped after 20 minutes with a solution of 1.0 M Tris, pH 9.5 to enhance fluorescent signal. Preliminary experiments have shown that reaction rates are linear for 20 minutes after substrate addition, and that 1.0 M Tris at pH 9.5 is sufficient for stopping activity, as signal is stable after stopping. Inhibition assays were run in the presence or absence of various concentrations of inhibitors and at a fixed substrate concentration of 100 μM and 1% DMSO. First, inhibitor was serially diluted to the desired range of concentrations in 2% DMSO buffer. Next, 25 μL, of inhibitor solutions at various concentrations in 2% DMSO Buffer was added to 25 μL, of 4.0 nM enzyme and allowed to incubate at 25° C. for 5 minutes. 50 μL of 200 μM and 1% DMSO substrate was then added and allowed to react for 20 minutes. 100 μL of stop solution was added to reaction mixture, and immediately mixed and aliquoted in 45 μL triplicates to a CORNING 384 well black plate. Fluorescence signal was measured in a BioTek Neo 2 Plate reader set at excitation and emission wavelengths of 355 and 450 nm, respectively. % Activity was subsequently calculated for each inhibitor concentration against the fluorescence signal of uninhibited HexA. […]

[5] = target: β-N-acetylglucosaminidase (from human placenta); test: Inhibition assay against commercial β-N-acetylglucosaminidase (human placenta), p-nitrophenyl N-acetyl-β-D-glucosaminide substrate; conditions: pH 5.5, 37° C.; average of three determinations ± s.e.m.; read-out: Human placenta Hex
Protocol: as §1, §2

| Ki [1] | Ki [2] | Ki [3] | IC50 [4] | Ki [5] | SMILES |
| --- | --- | --- | --- | --- | --- |
| 0.918 nM | 1420 ± 120 nM | 2450 ± 320 nM |  |  | CC(=O)N[C@H]1CN2/C(=N/CCc3ccccc3)SC[C@@H]2[C@@H](O)[C@@H]1O [Compound 12, 2-Acetamido-5-N,6-S-(N′-2-phenylethyliminomethylidene)-1,2-dideoxy-6-thionojirimycin Hydrochloride] |
| 24.1 nM | 570 ± 40 nM | 850 ± 60 nM | 990 nM | 240 ± 20 nM | CCCCN=C1SCC2C(O)C(O)C(NC(C)=O)CN12 (stereo not drawn) [Compound 1, 2-Acetamido-5-N,6-S-(N′-butyliminomethylidene)-1,2-dideoxy-6-thionojirimycin Hydrochloride] |
| 0.278 nM | 910 ± 90 nM | 3070 ± 300 nM |  |  | CC(=O)N[C@H]1CN2/C(=N/Cc3ccccc3CN=[N+]=[N-])SC[C@@H]2[C@@H](O)[C@@H]1O [Compound 9, 2-Acetamido-5-N,6-S-(N′-o-azidomethylbenzyliminomethylidene)-1,2-dideoxy-6-thionojirimycin Hydrochloride] |
| 47.7 nM | 430 ± 40 nM | 1500 ± 100 nM |  | 400 ± 30 nM | CC(=O)N[C@H]1CN2/C(=N/Cc3ccc(C(F)(F)F)cc3)SC[C@@H]2[C@@H](O)[C@@H]1O [Compound 8, 2-Acetamido-5-N,6-S-(N′-p-trifluoromethylbenzyliminomethylidene)-1,2-dideoxy-6-thionojirimycin hydrochloride] |
| 27.8 nM | 1200 ± 100 nM | 2200 ± 100 nM |  | 730 ± 40 nM | COc1ccc(C/N=C2\SC[C@@H]3[C@@H](O)[C@H](O)[C@@H](NC(C)=O)CN23)cc1 [Compound 7, 2-N-Acetyl-5-N,6-S-(N′-p-methoxybenzyliminomethylidene)-1,2-dideoxy-6-thionojirimycin Hydrochloride] |
| 0.438 nM | 720 ± 50 nM | 3400 ± 800 nM |  |  | CC(=O)N[C@H]1CN2/C(=N/Cc3ccc(CN=[N+]=[N-])cc3)SC[C@@H]2[C@@H](O)[C@@H]1O [Compound 11, 2-Acetamido-5-N,6-S-(N′-p-azidomethylbenzyliminomethylidene)-1,2-dideoxy-6-thionojirimycin Hydrochloride] |
| 0.292 nM | 890 ± 800 nM | 2400 ± 200 nM |  |  | CC(=O)N[C@H]1CN2/C(=N/Cc3cccc4ccccc34)SC[C@@H]2[C@@H](O)[C@@H]1O [Compound 5, 2-Acetamido-5-N,6-S-(N′-1-naphthylmethyliminomethylidene)-1,2-dideoxy-6-thionojirimycin Hydrochloride] |
| 20.2 nM | 190 ± 20 nM | 1300 ± 100 nM | 580 nM | 240 ± 20 nM | CCCCCCCCN=C1SCC2C(O)C(O)C(NC(C)=O)CN12 (stereo not drawn) [Compound 2, 2-Acetamido-1,2-dideoxy-5-N,6-S-(N′-octyliminomethylidene)-6-thionojirimycin Hydrochloride] |
| 53.8 nM | 1500 ± 200 nM | 3200 ± 300 nM |  | 280 ± 20 nM | CC(=O)N[C@H]1CN2/C(=N/Cc3ccc(F)cc3)SC[C@@H]2[C@@H](O)[C@@H]1O [Compound 6, 2-N-Acetyl-5-N,6-S-(N′-p-fluorobenzyliminomethylidene)-1,2-dideoxy-6-thionojirimycin Hydrochloride] |
| 399 nM | 700 ± 50 nM | 2800 ± 200 nM | 410 nM | 580 ± 40 nM | CC(=O)N[C@H]1CN2/C(=N/c3ccccc3)SC[C@@H]2[C@@H](O)[C@@H]1O [Compound 3, 2-Acetamido-1,2-dideoxy-5-N,6-S-(N′-phenyliminomethylidene)-6-thionojirimycin Hydrochloride] |
| 0.223 nM | 830 ± 60 nM | 3130 ± 800 nM |  |  | CC(=O)N[C@H]1CN2/C(=N/Cc3cccc(CN=[N+]=[N-])c3)SC[C@@H]2[C@@H](O)[C@@H]1O [Compound 10, 2-Acetamido-5-N,6-S-(N′-m-azidomethylbenzyliminomethylidene)-1,2-dideoxy-6-thionojirimycin Hydrochloride] |
